16 molecules from patent US20120165331A1, “Di/tri-aza-spiro-C9-C11alkanes” (priority 2010, published 2012) can be followed below.

The target of test [1] is T1, human orexin 1 receptor (Homo sapiens, UniProt O43613).
T1 construct: expressed in transfected cells
T1 sequence (O43613 1-425): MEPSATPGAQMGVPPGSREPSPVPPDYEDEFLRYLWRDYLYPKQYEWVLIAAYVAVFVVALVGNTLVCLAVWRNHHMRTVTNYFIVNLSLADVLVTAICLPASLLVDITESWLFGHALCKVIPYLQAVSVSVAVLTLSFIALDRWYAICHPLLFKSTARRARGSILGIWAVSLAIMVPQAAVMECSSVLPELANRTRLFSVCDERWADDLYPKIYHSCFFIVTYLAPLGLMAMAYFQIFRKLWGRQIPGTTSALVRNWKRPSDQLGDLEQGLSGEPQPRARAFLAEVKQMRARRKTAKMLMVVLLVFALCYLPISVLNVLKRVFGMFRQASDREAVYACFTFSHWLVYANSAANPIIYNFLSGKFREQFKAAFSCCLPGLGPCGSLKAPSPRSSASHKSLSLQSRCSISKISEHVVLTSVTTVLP
As to the kind of experiment: Radioligand binding assay ([3H]-SB649868 competition), human orexin 1 receptor. The note with it: radioligand [3H]-SB649868; read-out: Binding hOx1R Kd. As for the experimental part: (§1) Radioligand Binding Assay
(§2) For crude cell membrane preparations, cells (CHO, Chinese hamster ovary or HEK, human embryonic kidney) expressing human orexin 1 or human orexin 2 receptors, were washed with HEPES (10 mM, pH 7.5), scraped off the culture plates with the same buffer, and centrifuged at 4° C. for 5 min at 2500×g. The cell pellet was either stored at −80° C. or used directly. Before the experiments, cell membranes were re-suspended in binding assay buffer (10 mM HEPES, 0.5% (w/v) bovine serum albumin, pH 7.5) by homogenisation with a Polytron homogeniser at 50 Hz for 20 s. Cell membranes were also used as made available by commercial providers.
(§3) Bound radioactivity was measured, and data were analysed with the program XLFIT or Graphpad Prism. Protein concentration was determined according to the Bradford/BioRad Protein Assay Kit.
(§4) In competition experiments, cell homogenates (150 μl) were incubated in assay buffer (10 mM HEPES, pH 7.5, 0.5% (w/v) bovine serum albumin, 5 mM MgCl2, 1 mMCaCl2, and tween 0.05%) for 1 h at room temperature with about 1 nM of the radioligand [^3H]-SB649868, 66 Ci/mmole, 50 μl), and with various concentrations of compounds of the invention (50 μl) in triplicates; non-specific binding was determined in the presence of almorexant (10 μM). Reactions were terminated by vacuum filtration, 3 washes of ice cold wash buffer (Tris-HCl pH 7.4/10 mM, with NaCl 154 mM). Competition data is expressed in Table 1 as Kd [μM].

In test [2] the target is T2, human orexin 2 receptor (Homo sapiens, UniProt O43614).
T2 construct: expressed in transfected cells
T2 sequence (O43614 1-444): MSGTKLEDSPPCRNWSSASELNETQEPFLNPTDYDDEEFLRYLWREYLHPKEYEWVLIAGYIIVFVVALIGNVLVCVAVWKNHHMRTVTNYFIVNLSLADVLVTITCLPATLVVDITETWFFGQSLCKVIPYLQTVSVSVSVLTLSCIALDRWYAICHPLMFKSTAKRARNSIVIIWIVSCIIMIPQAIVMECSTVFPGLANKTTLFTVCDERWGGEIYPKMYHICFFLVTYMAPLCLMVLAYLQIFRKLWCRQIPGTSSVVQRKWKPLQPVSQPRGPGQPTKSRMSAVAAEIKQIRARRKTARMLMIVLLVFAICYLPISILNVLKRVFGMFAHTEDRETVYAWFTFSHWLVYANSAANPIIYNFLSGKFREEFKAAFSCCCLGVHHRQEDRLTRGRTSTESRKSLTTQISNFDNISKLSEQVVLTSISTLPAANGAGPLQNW
As to the kind of experiment: Radioligand binding assay ([3H]-SB649868 competition), human orexin 2 receptor. As to conditions: radioligand [3H]-SB649868; read-out: Binding hOx2R Kd. Here is the method: as §1, §2, §3, §4

Test [3] addresses T2, human orexin 2 receptor. Briefly: Calcium accumulation in cells (FLIPR), antagonism of orexin A, human orexin 2 receptor. The note with it: calcium accumulation, antagonism of orexin A, Cheng-Prusoff corrected; read-out: FLIPR hOx2R Ki. In kind it is cell-based.
Test [4] has as its target T1, human orexin 1 receptor. Briefly: Calcium accumulation in cells (FLIPR), antagonism of orexin A, human orexin 1 receptor. In kind it is cell-based. The note with it: for Ki: calcium accumulation, antagonism of orexin A, Cheng-Prusoff corrected, read-out: FLIPR hOx1R Ki; for inhibition at 10 µM: measured at a concentration of 10 μM of compound, read-out: FLIPR hOx1R % inhibition.

Regarding `Cc1cc(C)nc(N2CCC3(CC2)NCCN(Cc2nn(C)cc2-c2cccc(Cl)c2)C3=O)n1` [Example 1.42, 4-((4-(3-Chlorophenyl)-1-methyl-1H-pyrazol-3-yl)methyl)-9-(4,6-dimethyl-pyrimidin-2-yl)-1,4,9-triazaspiro[5.5] undecan-5-one], the Kd on human orexin 1 receptor [1] is 6490 nM; on human orexin 2 receptor [2], 391 nM. The Ki came out at 83 nM on human orexin 2 receptor [3] and 3280 nM at human orexin 1 receptor [4].

Take `COc1ccc2[nH]cc(CN3CCOC4(CCN(c5nc(C)cc(C)n5)CC4)C3=O)c2c1` [Example 2.7, 9-(4,6-Dimethylpyrimidin-2-yl)-4-((5-methoxy-1H-indol-3-yl)methyl)-1-oxa-4,9-diazaspiro[5.5]undecan-5-one]: the Kd on human orexin 1 receptor [1] amounted to 213 nM; on human orexin 2 receptor [2], 6 nM. Besides, the inhibitory constant (Ki) stood at 1 nM on human orexin 2 receptor [3] and 258 nM at human orexin 1 receptor [4].

As for `Cc1cc(C)nc(N2CCC3(CC2)NCCN(Cc2nn(C)cc2-c2cccc(OC(F)(F)F)c2)C3=O)n1` [Example 1.46, 9-(4,6-Dimethyl-pyrimidin-2-yl)-4-((1-methyl-4-(3-(trifluoro-methoxy)phenyl)-1H-pyrazol-3-yl)methyl)-1,4,9-triazaspiro[5.5] undecan-5-one], the dissociation constant (Kd) at human orexin 1 receptor [1] is 3880 nM; at human orexin 2 receptor [2] it was 91 nM. Further, the results for the inhibition constant (Ki) on human orexin 2 receptor [3] and at human orexin 1 receptor [4] were 5 nM and 2040 nM, respectively.

Turning to `N#Cc1ccnc(N2CCC3(CCC(=O)N3Cc3cccc4[nH]ccc34)CC2)c1` [Example 8.4, 2-(1-((1H-Indol-4-yl)methyl)-2-oxo-1,8-diazaspiro[4.5]decan-8-yl)isonicotinonitrile], the Kd at human orexin 1 receptor [1] is greater than 10000 nM; at human orexin 2 receptor [2] it was 348 nM. Besides, the Ki at human orexin 2 receptor [3] worked out at 45 nM. In addition, the inhibition at 10 µM on human orexin 1 receptor [4] came to 36%.

As for `Cc1cc(C)nc(N2CCC3(CC2)OCCN(Cc2c[nH]c4ccc(F)cc24)C3=O)n1` [Example 2.6, 9-(4,6-Dimethylpyrimidin-2-yl)-4-((5-fluoro-1H-indol-3-yl)methyl)-1-oxa-4,9-diazaspiro[5.5]undecan-5-one], the dissociation constant (Kd) on human orexin 1 receptor [1] was 1060 nM; on human orexin 2 receptor [2], 26 nM. For the same molecule, the results for the inhibition constant (Ki) on human orexin 2 receptor [3] and at human orexin 1 receptor [4] were 13 nM and 1060 nM, respectively.

As to `Cc1cc(C)nc(N2CCC3(CC2)NCCN(Cc2nn(C)cc2-c2cccc(C(C)C)c2)C3=O)n1` [Example 1.68, 9-(4,6-dimethyl-pyrimidin-2-yl)-4-((4-(3-isopropyl-phenyl)-1-methyl-1H-pyrazol-3-yl)methyl)-1,4,9-triazaspiro[5.5] undecan-5-one], the values for the dissociation constant (Kd) at human orexin 1 receptor [1] and at human orexin 2 receptor [2] were 1440 nM and 13 nM, respectively. The Ki is 4 nM at human orexin 2 receptor [3] and 945 nM on human orexin 1 receptor [4].

Consider `Cc1cc(C)nc(N2CCC3(CC2)NCCN(Cc2nn(C)cc2-c2cccc(C(F)(F)F)c2)C3=O)n1` [Example 1.41, 9-(4,6-Dimethyl-pyrimidin-2-yl)-4-((1-methyl-4-(3-(trifluoromethyl)phenyl)-1H-pyrazol-3-yl)methyl)-1,4,9-triazaspiro[5.5] undecan-5-one], for which the Kd on human orexin 1 receptor [1] came out at 3170 nM; on human orexin 2 receptor [2] it was 182 nM. Moreover, the results for the inhibition constant (Ki) at human orexin 2 receptor [3] and on human orexin 1 receptor [4] were 16 nM and 1580 nM, respectively.

For the molecule `Cc1cc(C)nc(N2CCC3(CC2)NCCN(Cc2nn(C)cc2-c2cccc(N4CCOCC4)c2)C3=O)n1` [Example 1.73, 9-(4,6-dimethyl-pyrimidin-2-yl)-4-((1-methyl-4-(3-morpholinophenyl)-1H-pyrazol-3-yl)methyl)-1,4,9-triazaspiro[5.5] undecan-5-one], the figures for the dissociation constant Kd at human orexin 1 receptor [1] and at human orexin 2 receptor [2] were 1380 nM and 163 nM, respectively. Besides, the inhibition constant (Ki) on human orexin 2 receptor [3] was 20 nM; at human orexin 1 receptor [4] it was 862 nM.

With `COc1cccc(-c2oc(C)nc2CN2CCNC3(CCN(c4nc(C)cc(OC)n4)CC3)C2=O)c1` [Example 1.18, 9-(4-Methoxy-6-methylpyrimidin-2-yl)-4-((5-(3-methoxyphenyl)-2-methyloxazol-4-yl)methyl)-1,4,9-triazaspiro[5.5] undecan-5-one], the Kd on human orexin 1 receptor [1] was 219 nM; at human orexin 2 receptor [2] it was 23 nM. Besides, the inhibition constant (Ki) at human orexin 2 receptor [3] was 3 nM; at human orexin 1 receptor [4], 119 nM.

On to `COc1cccc(-c2oc(C)nc2CN2CCNC3(CCN(c4nc(C)cc(C)n4)CC3)C2=O)c1` [Example 1.14, 9-(4,6-Dimethylpyrimidin-2-yl)-4-((5-(3-methoxyphenyl)-2-methyloxazol-4-yl)methyl)-1,4,9-triazaspiro[5.5] undecan-5-one], for which the Kd came out at 445 nM at human orexin 1 receptor [1] and 22 nM at human orexin 2 receptor [2]. Also, the values for the inhibition constant Ki on human orexin 2 receptor [3] and on human orexin 1 receptor [4] were 2 nM and 298 nM, respectively.

For `Cc1cc(C)nc(N2CCC3(CC2)OCCN(Cc2ccccc2-c2nc(C)no2)C3=O)n1` [Example 2.10, 9-(4,6-Dimethylpyrimidin-2-yl)-4-(2-(3-methyl-1,2,4-oxadiazol-5-yl)benzyl)-1-oxa-4,9-diazaspiro[5.5]undecan-5-one], the figures for the Kd at human orexin 1 receptor [1] and on human orexin 2 receptor [2] were 4610 nM and 144 nM, respectively. Further, the inhibition constant (Ki) at human orexin 2 receptor [3] was determined as 72 nM. Moreover, the inhibition at 10 µM at human orexin 1 receptor [4] came to 35%.

`COc1cc(C)nc(N2CCC3(CC2)NCCN(Cc2n[nH]c4ccccc24)C3=O)n1` [Example 1.65, 4-((1H-indazol-3-yl)methyl)-9-(4-methoxy-6-methyl-pyrimidin-2-yl)-1,4,9-triazaspiro[5.5] undecan-5-one]: the equilibrium dissociation constant (Kd) is 1160 nM on human orexin 1 receptor [1] and 58 nM on human orexin 2 receptor [2]. Further, the values for the Ki on human orexin 2 receptor [3] and at human orexin 1 receptor [4] were 21 nM and 1580 nM, respectively.

Consider `Cc1cc(C)nc(N2CCC3(CC2)NCCN(Cc2nn(C)cc2-c2cccc(OCC4CC4)c2)C3=O)n1` [Example 1.52, 4-((4-(3-(Cyclo-propylmethoxy)phenyl)-1-methyl-1H-pyrazol-3-yl)methyl)-9-(4,6-dimethylpyrimidin-2-yl)-1,4,9-triazaspiro[5.5] undecan-5-one], for which the dissociation constant Kd at human orexin 1 receptor [1] worked out at 436 nM; on human orexin 2 receptor [2], 50 nM. The figures for the Ki on human orexin 2 receptor [3] and on human orexin 1 receptor [4] were 2.8 nM and 286 nM, respectively.

With `COc1ccc2[nH]nc(CN3CCNC4(CCN(c5nc(C)cc(C)n5)CC4)C3=O)c2c1` [Example 1.56, 9-(4,6-Dimethyl-pyrimidin-2-yl)-4-((5-methoxy-1H-indazol-3-yl)methyl)-1,4,9-triazaspiro[5.5] undecan-5-one], the dissociation constant (Kd) on human orexin 1 receptor [1] came to 492 nM; at human orexin 2 receptor [2], 11 nM. For the same molecule, the Ki at human orexin 2 receptor [3] worked out at 2.7 nM; at human orexin 1 receptor [4] it was 594 nM.

`COCc1cccc(-c2oc(C)nc2CN2CCNC3(CCN(c4nc(C)cc(C)n4)CC3)C2=O)c1` [Example 1.30, 9-(4,6-Dimethyl-pyrimidin-2-yl)-4-((5-(3-(methoxymethyl)phenyl)-2-methyl-oxazol-4-yl)methyl)-1,4,9-triazaspiro[5.5] undecan-5-one]: the dissociation constant (Kd) at human orexin 1 receptor [1] is 2140 nM; on human orexin 2 receptor [2], 114 nM. In addition, the inhibition constant Ki at human orexin 2 receptor [3] was determined as 29 nM. Besides, the inhibition at 10 µM on human orexin 1 receptor [4] worked out at 51%.

For `COc1cccc(-c2n[nH]nc2CN2CCCC3(CCN(c4nccc(OC)n4)C3)C2=O)c1` (stereo not shown) [Example 7.6, 7-((5-(3-Methoxyphenyl)-2H-1,2,3-triazol-4-yl)methyl)-2-(4-methoxypyrimidin-2-yl)-2,7-diazaspiro[4.5]decan-6-one], the figures for the dissociation constant (Kd) at human orexin 1 receptor [1] and on human orexin 2 receptor [2] were 187 nM and 170 nM, respectively. Further, the Ki on human orexin 2 receptor [3] was determined as 65 nM; at human orexin 1 receptor [4], 189 nM.
